IC50 data for 26 molecules are collected here from US9242998B2, “Tetracyclic heterocycle compounds and methods of use thereof for the treatment of hepatitis C” (priority 2013, dated 2016).

One assay has as its system HCV genotype 1a replicon. The experiment in a line: HCV replicon assay, genotype 1a (cell ELISA for replicon-encoded NS3/4A). The format is cell-based. The note with it: Hepatitis C virus, 96 h, read-out: 1a IC50. The method, then: (§1) Measurement of inhibition by compounds was performed using the HCV replicon system. Several different replicons encoding different HCV genotypes or mutations were used. In addition, potency measurements were made using different formats of the replicon assay, including different ways of measurements and different plating formats. See Jan M. Vrolijk et al., A replicons-based bioassay for the measurement of interferons in patients with chronic hepatitis C, 110 J. V[…] 201 (2003); Steven S. Carroll et al., Inhibition of Hepatitis C Virus RNA Replication by 2′-Modified Nucleoside Analogs, 278(14) J. BIOLOGICAL CHEMISTRY 11979 (2003). However, the underlying principles are common to all of these determinations, and are outlined below.
(§2) Stable neomycin phosphotransferase encoding replicons-harboring cell lines were used, so all cell lines were maintained under G418 selection prior to the assay. Potency was determined using a cell ELISA assay with an antibody to the replicons encoded NS3/4a protease. See Caterina Trozzi et al., In Vitro Selection and Characterization of Hepatitis C Virus Serine Protease Variants Resistant to an Active-Site Peptide Inhibitor, 77(6) J. Virol. 3669 (2003). To initiate an assay, replicon cells were plated in the presence of a dilution series of test compound in the absence of G418. Typically, the assays were performed in a 96-well plate formate for manual operation, or a 384-well plate format for automated assay. Replicon cells and compound were incubated for 96 hours. At the end of the assay, cells were washed free of media and compound, and the cells were then lysed. RNA was quantified indirectly through detection of replicon-encoded NS3/4A protein levels, through an ELISA-based assay with an antibody specific for NS3/4A. IC50 determinations were calculated as a percentage of a DMSO control by fitting the data to a four-parameter fit function and the data obtained is provided in the table below.
(§3) Data for selected compounds of the present invention was obtained for genotypes 1a and 1b using this method and is provided in the table below: […]

The next assay has as its system HCV genotype 1b replicon. The experiment in a line: HCV replicon assay, genotype 1b (cell ELISA for replicon-encoded NS3/4A). Format: cell-based. The note with it: Hepatitis C virus, 96 h, read-out: 1b IC50. The method, then:
as §1, §2, §3
(In general: Replicon systems follow genome replication, usually without infectious particles.)

As to `CNC(=O)c1c(-c2ccc(OC(F)(F)F)cc2)oc2cc(N(C)S(C)(=O)=O)c(-c3ccc4c(n3)-c3cc5c(F)cccc5n3CO4)cc12` [Compound 33], the IC50 was determined as 50 nM with HCV genotype 1a replicon and 2.5 nM in the assay with HCV genotype 1b replicon.

In the case of `CNC(=O)c1c(-c2ccc(Oc3ccc(F)cc3)nc2)oc2cc(N(C)S(C)(=O)=O)c(-c3ccc4c(n3)-c3cc5c(F)cccc5n3CO4)cc12` [Compound 27, 5-(11-fluoro-6H-pyrido[2′,3′:5,6][1,3]oxazino[3,4-a]indol-2-yl)-2-(6-(4-fluorophenoxy)pyridin-3-yl)-N-methyl-6-(N-methylmethylsulfonamido)benzofuran-3-carboxamide], the figures for the IC50 with HCV genotype 1a replicon and with HCV genotype 1b replicon were 23 nM and 34 nM, respectively.

Consider `CNC(=O)c1c(-c2cccnc2O)oc2cc(N(C)S(C)(=O)=O)c(-c3ccc4c(n3)-c3cc5c(F)cccc5n3CO4)cc12` [Compound 17, 5-(11-fluoro-6H-pyrido[2′,3′:5,6][1,3]oxazino[3,4-a]indol-2-yl)-2-(2-hydroxypyridin-3-yl)-N-methyl-6-(N-methylmethylsulfonamido)benzofuran-3-carboxamide], for which the IC50 in the assay on HCV genotype 1a replicon turned out to be 324 nM; in the assay on HCV genotype 1b replicon, 393 nM.

With `CNC(=O)c1c(-c2ccc(OC)nc2)oc2cc(N(C)S(C)(=O)=O)c(-c3ccc4c(n3)-c3cc5c(F)cccc5n3C(CO)O4)cc12` (single isomer, unassigned) [Compound 21, (S or R)-5-(11-fluoro-6-(hydroxymethyl)-6H-pyrido[2′,3′:5,6][1,3]oxazino[3,4-a]indol-2-yl)-2-(6-methoxypyridin-3-yl)-N-methyl-6-(N-methylmethylsulfonamido)benzofuran-3-carboxamide], the figures for the IC50 in the assay on HCV genotype 1a replicon and in the assay on HCV genotype 1b replicon were 2.4 nM and 2.8 nM, respectively.

For `CNC(=O)c1c(-c2ccn(C)c(=O)c2)oc2cc(N(C)S(C)(=O)=O)c(-c3ccc4c(n3)-c3cc5c(F)cccc5n3CO4)cc12` [Compound 18, 5-(11-fluoro-6H-pyrido[2′,3′:5,6][1,3]oxazino[3,4-a]indol-2-yl)-N-methyl-2-(1-methyl-2-oxo-1,2-dihydropyridin-4-yl)-6-(N-methylmethylsulfonamido)benzofuran-3-carboxamide], the IC50 came out at 57 nM in the assay with HCV genotype 1a replicon and 29 nM in the assay on HCV genotype 1b replicon.

For the molecule `CNC(=O)c1c(/C(C)=N/OC)oc2cc(N(C)S(C)(=O)=O)c(-c3ccc4c(n3)-c3cc5c(F)cccc5n3CO4)cc12` [Compound 59, 5-(11-fluoro-6H-pyrido[2′,3′:5,6][1,3]oxazino[3,4-a]indol-2-yl)-2-(1-(methoxyimino)ethyl)-N-methyl-6-(N-methylmethylsulfonamido)benzofuran-3-carboxamide], the IC50 was 34 nM in the assay with HCV genotype 1a replicon and 13 nM in the assay on HCV genotype 1b replicon.

Consider `CNC(=O)c1c(-c2ccc(OC)nc2)oc2cc(N(C)S(C)(=O)=O)c(-c3ccc4c(n3)-c3nc5cccc(F)c5n3CO4)cc12` [Compound 19, 5-(8-fluoro-6H-benzo[4,5]imidazo[1,2-c]pyrido[2,3-e][1,3]oxazin-2-yl)-2-(6-methoxypyridin-3-yl)-N-methyl-6-(N-methylmethylsulfonamido)benzofuran-3-carboxamide], for which the results for the IC50 with HCV genotype 1a replicon and in the assay on HCV genotype 1b replicon were 35 nM and 13 nM, respectively.

In the case of `CNC(=O)c1c(-n2ccnc2)oc2cc(N(C)S(C)(=O)=O)c(-c3ccc4c(n3)-c3cc5c(F)cccc5n3CO4)cc12` [Compound 36, 5-(11-fluoro-6H-pyrido[2′,3′:5,6][1,3]oxazino[3,4-a]indol-2-yl)-2-(1H-imidazol-1-yl)-N-methyl-6-(N-methylmethylsulfonamido)benzofuran-3-carboxamide], the values for the IC50 in the assay on HCV genotype 1a replicon and in the assay with HCV genotype 1b replicon were 14 nM and 20 nM, respectively.

As to `CNC(=O)c1c(-c2ccc(C(F)(F)F)cn2)oc2cc(N(C)S(C)(=O)=O)c(-c3ccc4c(n3)-c3cc5c(F)cccc5n3CO4)cc12` [Compound 31], the IC50 was 5.9 nM in the assay with HCV genotype 1a replicon and 3.9 nM with HCV genotype 1b replicon.

With `CCOc1ccc(-c2oc3cc(N(C)S(C)(=O)=O)c(-c4ccc5c(n4)-c4cc6c(F)cccc6n4CO5)cc3c2C(=O)NC)cn1` [Compound 6], the values for the IC50 with HCV genotype 1a replicon and with HCV genotype 1b replicon were 17 nM and 12 nM, respectively.

`CNC(=O)c1c(-n2cccn2)oc2cc(N(C)S(C)(=O)=O)c(-c3ccc4c(n3)-c3cc5c(F)cccc5n3CO4)cc12` [Compound 40]: the IC50 was 16 nM in the assay on HCV genotype 1a replicon and 22 nM in the assay with HCV genotype 1b replicon.

As to `CNC(=O)c1c(-c2ccnc(OC)c2)oc2cc(N(C)S(C)(=O)=O)c(-c3ccc4c(n3)-c3cc5c(F)cccc5n3CO4)cc12` [Compound 1, 5-(11-fluoro-6H-pyrido[2′,3′:5,6][1,3]oxazino[3,4-a]indol-2-yl)-2-(2-methoxypyridin-4-yl)-N-methyl-6-(N-methylmethylsulfonamido)benzofuran-3-carboxamide], the IC50 in the assay with HCV genotype 1a replicon is 11 nM; with HCV genotype 1b replicon, 14 nM.

Turning to `CNC(=O)c1c(-c2ccc(F)nc2)oc2cc(N(C)S(C)(=O)=O)c(-c3ccc4c(n3)-c3cc5c(F)cccc5n3CO4)cc12` [Compound 4], the IC50 in the assay on HCV genotype 1a replicon came to 3 nM; with HCV genotype 1b replicon it was 6.1 nM.

For the molecule `CNC(=O)c1c(-c2ccc(OC(F)F)nc2)oc2cc(N(C)S(C)(=O)=O)c(-c3ccc4c(n3)-c3cc5c(F)cccc5n3C(CO)O4)cc12` (stereo not shown) [Compound 23], the values for the half-maximal inhibitory concentration (IC50) in the assay with HCV genotype 1a replicon and in the assay on HCV genotype 1b replicon were 2.8 nM and 2.9 nM, respectively.

Turning to `CNC(=O)c1c(-c2ccc(C)nc2)oc2cc(N(C)S(C)(=O)=O)c(-c3ccc4c(n3)-c3cc5c(F)cccc5n3CO4)cc12` [Compound 7], the IC50 with HCV genotype 1a replicon is 8.5 nM; in the assay on HCV genotype 1b replicon, 13 nM.

`CNC(=O)c1c(C2=CCCC2)oc2cc(N(C)S(C)(=O)=O)c(-c3ncc4c(n3)-c3cc5c(F)cccc5n3CO4)cc12` [Compound 47]: the IC50 in the assay with HCV genotype 1a replicon stood at 5.9 nM; in the assay on HCV genotype 1b replicon it was 8.8 nM.

On to `CNC(=O)c1c(C(=O)N2CCC2)oc2cc(N(C)S(C)(=O)=O)c(-c3ccc4c(n3)-c3cc5c(F)cccc5n3CO4)cc12` [Compound 56], for which the values for the IC50 in the assay with HCV genotype 1a replicon and in the assay on HCV genotype 1b replicon were 5 nM and 11 nM, respectively.

As to `CNC(=O)c1c(-c2ccc(C(F)(F)F)cc2)oc2cc(N(C)S(C)(=O)=O)c(-c3ccc4c(n3)-c3cc5c(F)cccc5n3CO4)cc12` [Compound 8], the IC50 with HCV genotype 1a replicon turned out to be 6.3 nM; in the assay with HCV genotype 1b replicon, 4.5 nM.

`CNC(=O)c1c(N2CCOC2=O)oc2cc(N(C)S(C)(=O)=O)c(-c3ccc4c(n3)-c3cc5c(F)cccc5n3CO4)cc12` [Compound 43]: the half-inhibitory concentration (IC50) is 21 nM with HCV genotype 1a replicon and 50 nM in the assay on HCV genotype 1b replicon.

As to `CCn1cc(-c2oc3cc(N(C)S(C)(=O)=O)c(-c4ccc5c(n4)-c4cc6c(F)cccc6n4CO5)cc3c2C(=O)NC)cn1` [Compound 14], the IC50 in the assay with HCV genotype 1a replicon turned out to be 9.1 nM; in the assay on HCV genotype 1b replicon it was 18 nM.

For `CNC(=O)c1c(-c2cnc(OC)nc2)oc2cc(N(C)S(C)(=O)=O)c(-c3ccc4c(n3)-c3cc5c(F)cccc5n3CO4)cc12` [Compound 13], the IC50 in the assay on HCV genotype 1a replicon was 16 nM; with HCV genotype 1b replicon it was 9.4 nM.

Turning to `CNC(=O)c1c(-c2ccc(OC(F)F)nc2)oc2cc(N(C)S(C)(=O)=O)c(-c3ccc4c(n3)-c3cc5c(F)cccc5n3CO4)cc12` [Compound 25, 2-(6-(difluoromethoxy)pyridin-3-yl)-5-(11-fluoro-6H-pyrido[2′,3′:5,6][1,3]oxazino[3,4-a]indol-2-yl)-N-methyl-6-(N-methylmethylsulfonamido)benzofuran-3-carboxamide], the IC50 is 3 nM with HCV genotype 1a replicon and 5 nM in the assay on HCV genotype 1b replicon.

For `CNC(=O)c1c(-c2ccc(F)cn2)oc2cc(N(C)S(C)(=O)=O)c(-c3ccc4c(n3)-c3cc5c(F)cccc5n3CO4)cc12` [Compound 30], the IC50 was 11 nM in the assay on HCV genotype 1a replicon and 25 nM with HCV genotype 1b replicon.

Regarding `CNC(=O)c1c(N2CCOCC2)oc2cc(N(C)S(C)(=O)=O)c(-c3ccc4c(n3)-c3cc5c(F)cccc5n3CO4)cc12` [Compound 42, 5-(11-fluoro-6H-pyrido[2′,3′:5,6][1,3]oxazino[3,4-a]indol-2-yl)-N-methyl-6-(N-methylmethylsulfonamido)-2-morpholinobenzofuran-3-carboxamide], the IC50 worked out at 85 nM in the assay on HCV genotype 1a replicon and 35 nM in the assay with HCV genotype 1b replicon.

As for `CNC(=O)c1c(C2CC2)oc2cc(N(C)S(C)(=O)=O)c(-c3ccc4c(n3)-c3cc5c(F)cccc5n3C(CO)O4)cc12` (single isomer, unassigned) [Compound 51, (R or S)-2-cyclopropyl-5-(11-fluoro-6-(hydroxymethyl)-6H-pyrido[2′,3′:5,6][1,3]oxazino[3,4-a]indol-2-yl)-N-methyl-6-(N-methylmethylsulfonamido)benzofuran-3-carboxamide], the IC50 with HCV genotype 1a replicon was determined as 8.3 nM; with HCV genotype 1b replicon it was 15 nM.

In the case of `CNC(=O)c1c(-c2ccc(OC)nc2)oc2cc(N(C)S(C)(=O)=O)c(-c3ccc4c(n3)-c3nc5c(F)cccc5n3CO4)cc12` [Compound 20, 5-(11-fluoro-6H-benzo[4,5]imidazo[1,2-c]pyrido[2,3-e][1,3]oxazin-2-yl)-2-(6-methoxypyridin-3-yl)-N-methyl-6-(N-methylmethylsulfonamido)benzofuran-3-carboxamide], the IC50 was found to be 3.7 nM with HCV genotype 1a replicon and 2.5 nM in the assay with HCV genotype 1b replicon.

As a reminder, the IC50 is the point on the concentration scale where inhibition reaches its midpoint.
